Laboratory results published in patent publication US10513521B2, “Compositions and methods for inhibiting BMP” (The Brigham and Women's Hospital, Inc., priority 2014, dated 2019).
Changes are numbered by the printed parent chain. Like-named read-outs stand apart in the source and are kept apart here.

What was measured:
ALK3 = ALK3 (Homo sapiens, UniProt P36894); assay: TR-FRET enzymatic ALK kinase assay, ALK3
Protocol: (§1) Briefly, the ALKs enzymatic assay was initiated by dispense 2.5 μl enzyme in 1× kinase reaction buffer. The assay plate was then added with compounds followed by incubation at room temperature for 10 minutes. Then 2.5 μl/well substrate was added.

ALK4 = target: T1, ALK4 (Homo sapiens, UniProt P36896); assay: TR-FRET enzymatic ALK kinase assay, ALK4
T1 sequence (P36896 24-505): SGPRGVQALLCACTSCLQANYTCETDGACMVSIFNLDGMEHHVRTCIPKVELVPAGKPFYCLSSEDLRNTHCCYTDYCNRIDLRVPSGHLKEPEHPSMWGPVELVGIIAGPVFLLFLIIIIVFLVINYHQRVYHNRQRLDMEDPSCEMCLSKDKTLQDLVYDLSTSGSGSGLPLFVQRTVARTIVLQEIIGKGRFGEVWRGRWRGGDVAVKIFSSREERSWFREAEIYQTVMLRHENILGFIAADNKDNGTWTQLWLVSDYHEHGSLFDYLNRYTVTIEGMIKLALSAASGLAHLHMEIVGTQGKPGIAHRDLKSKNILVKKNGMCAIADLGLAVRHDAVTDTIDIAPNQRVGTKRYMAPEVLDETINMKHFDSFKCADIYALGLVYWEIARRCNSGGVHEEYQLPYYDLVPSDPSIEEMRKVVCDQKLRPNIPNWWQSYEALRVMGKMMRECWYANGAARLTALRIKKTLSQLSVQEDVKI
Protocol: as §1

ALK1 = ALK1 (Homo sapiens, UniProt P37023); assay: TR-FRET enzymatic ALK kinase assay, ALK1
ALK1, sequence (P37023 22-503): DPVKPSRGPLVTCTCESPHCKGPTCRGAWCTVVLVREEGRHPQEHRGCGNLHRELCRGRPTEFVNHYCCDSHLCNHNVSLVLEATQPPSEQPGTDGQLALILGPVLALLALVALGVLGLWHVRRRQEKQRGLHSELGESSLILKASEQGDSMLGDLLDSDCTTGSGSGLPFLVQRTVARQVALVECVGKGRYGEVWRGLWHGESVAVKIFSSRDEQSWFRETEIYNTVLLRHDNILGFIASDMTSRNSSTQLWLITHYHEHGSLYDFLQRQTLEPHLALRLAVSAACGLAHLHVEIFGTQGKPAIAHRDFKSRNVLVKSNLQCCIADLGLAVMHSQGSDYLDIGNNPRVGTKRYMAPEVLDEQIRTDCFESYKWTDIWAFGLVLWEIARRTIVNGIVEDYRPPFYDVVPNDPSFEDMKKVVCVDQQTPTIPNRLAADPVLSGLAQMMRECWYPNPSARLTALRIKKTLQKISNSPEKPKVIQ
Protocol: as §1

ALK5 = target: T2, ALK5 (Homo sapiens, UniProt P36897); assay: TR-FRET enzymatic ALK kinase assay, ALK5
T2 sequence (P36897 34-503): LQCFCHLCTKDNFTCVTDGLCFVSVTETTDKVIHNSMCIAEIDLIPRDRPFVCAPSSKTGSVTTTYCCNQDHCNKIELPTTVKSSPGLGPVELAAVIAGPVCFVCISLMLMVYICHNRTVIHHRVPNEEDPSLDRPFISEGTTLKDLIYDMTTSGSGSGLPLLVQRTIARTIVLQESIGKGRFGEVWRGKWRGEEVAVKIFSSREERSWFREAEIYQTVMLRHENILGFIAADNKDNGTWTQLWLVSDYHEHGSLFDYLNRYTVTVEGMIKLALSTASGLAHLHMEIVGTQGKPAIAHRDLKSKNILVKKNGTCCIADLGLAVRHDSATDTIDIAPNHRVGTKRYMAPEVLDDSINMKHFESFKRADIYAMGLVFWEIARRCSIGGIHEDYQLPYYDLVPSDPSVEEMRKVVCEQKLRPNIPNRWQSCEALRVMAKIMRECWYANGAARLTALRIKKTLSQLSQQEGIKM
Protocol: Six ALK kinase enzyme assays were developed for determination of compound activities on ALK1, ALK2, ALK3, ALK4, ALK5 and ALK6.
as §1

ALK2 [1] = target: T3, ALK2 (Homo sapiens, UniProt Q04771); assay: TR-FRET enzymatic ALK kinase assay, ALK2
T3 sequence (Q04771 21-509): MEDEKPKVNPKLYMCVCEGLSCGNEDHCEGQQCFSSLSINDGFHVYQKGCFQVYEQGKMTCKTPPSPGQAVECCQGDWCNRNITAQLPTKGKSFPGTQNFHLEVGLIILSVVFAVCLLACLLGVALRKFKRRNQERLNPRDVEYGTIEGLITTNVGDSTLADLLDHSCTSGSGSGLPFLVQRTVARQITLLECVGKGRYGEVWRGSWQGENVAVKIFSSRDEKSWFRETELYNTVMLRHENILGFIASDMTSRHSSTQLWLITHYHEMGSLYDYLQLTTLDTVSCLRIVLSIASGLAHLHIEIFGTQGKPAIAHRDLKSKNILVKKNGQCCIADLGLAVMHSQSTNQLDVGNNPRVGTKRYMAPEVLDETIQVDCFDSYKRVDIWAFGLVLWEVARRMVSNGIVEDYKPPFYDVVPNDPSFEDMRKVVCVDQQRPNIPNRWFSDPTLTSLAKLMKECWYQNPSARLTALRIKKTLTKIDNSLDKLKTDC
Protocol: as §1

ALK2 [2] = target: T4, ALK2 (Mus musculus, UniProt P37172); assay: HTRF pSMAD1 cell-based ALK2 assay (C2C12 cells, BMP6 as agonist)
T4 construct: The C2C12 cell line was selected for the measurement of ALK2 activity using BMP6 as the agonist; host or cells: C2C12
T4 sequence (P37172 21-509): T3 sequence (Q04771 21-509) with M1V, P10Q, L121I, D162E, P310S
Protocol: 2. HTRF Cell-Based ALK1 and ALK2 Assays in 384-Well Plate Format We have developed a cell based ALK1 kinase assay and a cell-based ALK2 assay. The BAOEC cell line was employed for the measurement of ALK1 activity using BMP9 as the agonist. The C2C12 cell line was selected for the measurement of ALK2 activity using BMP6 as the agonist. The kinase specificity was defined by the specific cell line and agonist. The kinase activity was determined by the status of SMD 1/5/8 phosphorylation stimulated by the agonist.
HyClone Fetal Bovine Serum was obtained from GE healthcare life sciences (Logan, Utah). BMP6 and BMP9 were purchased from R&D System. […] The compound plates and the white solid MB assay plates were purchased from Greiner Bio-one (Monroe, N.C.).
HTRF optimization experiments were performed in 384 well plate format. […] Pre-starved cells were then plated in 384 well plate in the starvation medium (containing in 0.1% FBS). After 4 hours, compounds were added to the assay plate and incubated for 30 minutes. The assay plate was then added with BMP6 for C2C12 cells or BMP9 for BAOEC cells and incubated for 30 minutes.
HTRF assay was performed to measure the status of SMAD 1 phosphorylation after stimulated with the agonist (Table 3). This HTRF phospho SMAD1 cell assay was developed and optimized for the homogenous detection of phospho SMAD 1 levels in cells. […] The plate was incubated at room temperature for overnight.

ALK6 = ALK6 (Homo sapiens, UniProt O00238); assay: TR-FRET enzymatic ALK kinase assay, ALK6
ALK6, sequence (O00238 14-502): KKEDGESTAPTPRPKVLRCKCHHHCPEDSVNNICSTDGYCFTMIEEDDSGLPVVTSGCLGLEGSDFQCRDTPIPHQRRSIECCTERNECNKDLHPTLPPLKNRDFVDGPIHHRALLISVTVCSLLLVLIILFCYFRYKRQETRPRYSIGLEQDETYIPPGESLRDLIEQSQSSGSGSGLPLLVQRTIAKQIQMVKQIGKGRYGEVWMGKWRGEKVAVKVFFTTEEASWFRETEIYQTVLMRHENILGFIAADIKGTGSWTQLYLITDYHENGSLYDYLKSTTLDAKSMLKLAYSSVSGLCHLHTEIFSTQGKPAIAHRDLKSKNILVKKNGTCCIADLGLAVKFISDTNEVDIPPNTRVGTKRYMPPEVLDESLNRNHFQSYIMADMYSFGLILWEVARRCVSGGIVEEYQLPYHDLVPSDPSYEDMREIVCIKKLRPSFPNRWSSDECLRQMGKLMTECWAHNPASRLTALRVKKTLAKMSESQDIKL
Protocol: as §1

[3] = cell-based assay, BMP6, read-out: Cell IC50 BMP6
[4] = HTRF assay, BMP6 as agonist, C2C12 cells, read-out: BMP6 HTRF

ALK3, sequence (P36894 24-532): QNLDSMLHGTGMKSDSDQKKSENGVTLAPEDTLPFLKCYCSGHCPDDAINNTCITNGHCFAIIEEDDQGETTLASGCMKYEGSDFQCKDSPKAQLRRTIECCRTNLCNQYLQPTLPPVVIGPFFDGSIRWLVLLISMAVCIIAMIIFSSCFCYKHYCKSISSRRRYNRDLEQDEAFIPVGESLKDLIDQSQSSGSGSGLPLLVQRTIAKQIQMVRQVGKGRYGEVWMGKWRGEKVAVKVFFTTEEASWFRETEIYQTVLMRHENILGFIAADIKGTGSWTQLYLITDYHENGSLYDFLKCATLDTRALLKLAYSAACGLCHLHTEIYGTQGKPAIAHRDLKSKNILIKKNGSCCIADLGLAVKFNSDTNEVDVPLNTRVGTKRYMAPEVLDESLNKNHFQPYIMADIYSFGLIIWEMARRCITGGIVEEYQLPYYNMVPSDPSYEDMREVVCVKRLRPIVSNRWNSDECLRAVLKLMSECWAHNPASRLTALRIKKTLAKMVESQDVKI

Structure (SMILES)	IC50 (ALK3) [µM]	IC50 (ALK4) [µM]	IC50 (ALK1) [µM]	IC50 (ALK5) [µM]	IC50 (ALK2 [1]) [µM]	IC50 (ALK2 [2]; [3]) [µM]	IC50 (ALK6) [µM]	IC50 (ALK2 [2]; [4]) [µM]
CCS(=O)(=O)c1cccc(-c2cnn3cc(-c4ccc(CCN5CCCCC5)cc4)cnc23)c1 [Compound 106, 3-(3-(ethylsulfonyl)phenyl)-6-(4-(2-(piperidin-1-yl)ethyl)phenyl)pyrazolo[1,5-a]pyrimidine]	2.2	> 10	0.22	> 10	0.066	0.0022	> 10	–
C[C@@H]1CNC[C@H](C)N1c1ccc(-c2cnc3c(-c4ccc(S(=O)(=O)C(F)(F)F)cc4)cnn3c2)cc1 [Compound 45, 6-(4-((2R,6S)-2,6-dimethylpiperazin-1-yl)phenyl)-3-(4-((trifluoromethyl)sulfonyl)phenyl)pyrazolo[1,5-a]pyrimidine]	> 10	> 10	> 10	> 10	> 10	9.16	> 10	–
C[C@@H]1CNC[C@H](C)N1c1ccc(-c2cnc3c(-c4cccc(CS(N)(=O)=O)c4)cnn3c2)cc1 [Compound 73, (3-(6-(4-((2R,6S)-2,6-dimethylpiperazin-1-yl)phenyl)pyrazolo[1,5-a]pyrimidin-3-yl)phenyl)methanesulfonamide]	1.4	6.4	0.16	> 10	0.037	0.75	> 10	–
C[C@@H]1CNC[C@H](C)N1c1ccc(-c2cnc3c(-c4ccc(N)c5ccccc45)cnn3c2)cc1 [Compound 59, 4-(6-(4-((2R,6S)-2,6-dimethylpiperazin-1-yl)phenyl)pyrazolo[1,5-a]pyrimidin-3-yl)naphthalen-1-amine]	0.9	4.1	0.14	> 10	0.043	0.284	2.5	–
C[C@@H]1CNC[C@H](C)N1c1ccc(-c2cnc3c(-c4cccc(CO)c4)cnn3c2)cc1 [Compound 74, (3-(6-(4-((2R,6S)-2,6-dimethylpiperazin-1-yl)phenyl)pyrazolo[1,5-a]pyrimidin-3-yl)phenyl)methanol]	1.7	> 10	0.15	> 10	0.04	0.08	> 10	–
C[C@@H]1CNC[C@H](C)N1c1ccc(-c2cnc3c(-c4cccc(CCO)c4)cnn3c2)cc1 [Compound 70, 2-(3-(6-(4-((2R,6S)-2,6-dimethylpiperazin-1-yl)phenyl)pyrazolo[1,5-a]pyrimidin-3-yl)phenyl)ethanol]	2.8	> 10	0.28	> 10	0.066	1.2	> 10	–
C[C@@H]1CNC[C@H](C)N1c1ccc(-c2cnc3c(-c4cc(N)cc5ccccc45)cnn3c2)cc1 [Compound 58, 4-(6-(4-((2R,6S)-2,6-dimethylpiperazin-1-yl)phenyl)pyrazolo[1,5-a]pyrimidin-3-yl)naphthalen-2-amine]	0.37	6.1	0.073	> 10	0.036	0.09	0.95	–

The next lines start with the values.

IC50 (ALK3) [µM]	IC50 (ALK4) [µM]	IC50 (ALK1) [µM]	IC50 (ALK5) [µM]	IC50 (ALK2 [1]) [µM]	IC50 (ALK2 [2]; [3]) [µM]	IC50 (ALK6) [µM]	IC50 (ALK2 [2]; [4]) [µM]	Structure (SMILES)
3.9	> 10	0.48	> 10	0.05	0.71	> 10	–	O=[S+]([O-])(c1cccc(-c2cnn3cc(-c4ccc(C5CCNCC5)cc4)cnc23)c1)C1CC1 [Compound 110, 3-(3-(cyclopropylsulfonyl)phenyl)-6-(4-(piperidin-4-yl)phenyl)pyrazolo[1,5-a]pyrimidine]
2.9	> 10	0.22	> 10	0.057	–	> 10	0.38	CC(O)c1cccc(-c2cnn3cc(-c4ccc(C5(C)CCNCC5)cc4)cnc23)c1 (stereo not drawn) [Compound 136, 1-(3-(6-(4-(4-methylpiperidin-4-yl)phenyl)pyrazolo[1,5-a]pyrimidin-3-yl)phenyl)ethanol]
0.14	1.3	0.032	5.9	0.003	–	3.1	0.24	CC(O)c1cccc(-c2cnn3cc(-c4ccc(CN5CCCC5)cc4)cnc23)c1 (stereo not drawn) [Compound 165, 1-(3-(6-(4-(pyrrolidin-1-ylmethyl)phenyl)pyrazolo[1,5-a]pyrimidin-3-yl)phenyl)ethanol]
> 10	> 10	0.43	> 10	0.066	< 0.001	8.4	–	O=[S+]([O-])(c1cccc(-c2cnn3cc(-c4ccc(CN5CCCCC5)cc4)cnc23)c1)C1CC1 [Compound 125, 3-(3-(cyclopropylsulfonyl)phenyl)-6-(4-(piperidin-1-ylmethyl)phenyl)pyrazolo[1,5-a]pyrimidine]
> 10	> 10	> 10	> 10	6.6	2.13	> 10	–	Cc1ccc([S+](=O)([O-])C(F)(F)F)cc1-c1cnn2cc(-c3ccc(N4[C@H](C)CNC[C@@H]4C)cc3)cnc12 [Compound 107, 6-(4-((2R,6S)-2,6-dimethylpiperazin-1-yl)phenyl)-3-(2-methyl-5-((trifluoromethyl)sulfonyl)phenyl)pyrazolo[1,5-a]pyrimidine]
